Data published in patent publication US11147772B2, “Timed, pulsatile release systems” (Adare Pharmaceuticals, Inc., priority 2005, dated 2021).
Counter-ions that a name gives are not always drawn.

Legend:
[1] = pH of representative drugs suspended in water; format: physicochemical; settings: for pH when suspended in purified water (range over the concentrations of Table 1): range over tested solid contents; for Acidity/Alkalinity: drug suspended in water
[2] = Drug release (dissolution) testing of TPR beads in two-stage medium, lag-time; format: physicochemical; settings: expected from higher alkalinity, given coating conditions
Experimental: Dissolution testing of IR beads and enteric coated beads (for acid resistance testing) is conducted with a USP Apparatus 1 (baskets at 100 rpm) or Apparatus 2 (paddles at 50 rpm) in 900 mL of 0.1N HCl at 37° C. while the dissolution testing of TPR beads is conducted in a USP apparatus using a two-stage dissolution medium (first 2 hours in 700 mL of 0.1N HCl at 37° C. followed by dissolution testing at pH=6.8 obtained by the addition of 200 mL of pH modifier). Drug release with time is determined by HPLC on samples pulled at selected intervals.
Drug Release Testing: The drug release profiles were generated by dissolution testing per US Pharmacopoeia method (Apparatus 1 with baskets at 100 rpm or Apparatus 2 with paddles at 50 rpm) using 700 mL of p H 1.2 buffer for 2 hours followed by testing in 900 mL of pH 6.8 for the remaining time-points). The IR and enteric-coated beads were tested in 900 mL of 0.1N HCl for 1 and 1.5 hrs, respectively. The samples pulled at different time-points were quantified by HPLC.

[3] = drug concentration (solid content) 0.1 mg/mL in water
[4] = drug concentration (solid content) 1.0 mg/mL in water
[5] = drug concentration (solid content) 10 mg/mL in water
[6] = drug concentration (solid content) 0.2 mg/mL in water
[7] = drug concentration (solid content) 2.0 mg/mL in water
[8] = drug concentration (solid content) 20 mg/mL in water

pH of Solution/Suspension [1, 3]	pH of Solution/Suspension [1, 4]	pH of Solution/Suspension [1, 5]	pH when suspended in purified water (range over the concentrations of Table 1) [1]	lag time relative to nizatidine [2]	pH of Solution/Suspension [1, 6]	pH of Solution/Suspension [1, 7]	pH of Solution/Suspension [1, 8]	SMILES	Acidity/Alkalinity [1]
pH = 7.9	pH = 10.9	pH = 11.0	7.9-11.0	shorter lag time than nizatidine	–	–	–	CC(C)NCC(O)COc1ccc(CC(N)=O)cc1 (stereo not shown) [Atenolol]	–
pH = 6.1	pH = 6.5	pH = 6.7	–	–	–	–	–	CN(C)CCC=C1c2ccccc2C=Cc2ccccc21 [Cyclobenzaprine Hydrochloride]	Acidic (exhibiting a pH of 7.0, or less, when suspended in water at a solid content of 2 mg/mL is designated as an acidic drug)
–	–	–	6.5-8.7	–	pH = 6.5	pH = 7.4	pH = 8.7	CNC(=C[N+](=O)[O-])NCCSCc1csc(CN(C)C)n1 [Nizatidine]	Alkaline (an API exhibiting a pH of 7.0, or greater, is designated as an alkaline drug)
–	–	–	5.7-6.5	–	pH = 5.7	pH = 6.0	pH = 6.5	CC(C)NCC(O)COc1cccc2ccccc12 (stereo not shown) [Propranolol Hydrochloride]	Acidic (exhibiting a pH of 7.0, or less, when suspended in water at a solid content of 2 mg/mL is designated as an acidic drug)
